Columns and labels:
[1] = molecular target: T1, Prostaglandin G/H synthase 1 (Rattus norvegicus, UniProt Q63921); format: functional
T1 sequence (Q63921 whole entry): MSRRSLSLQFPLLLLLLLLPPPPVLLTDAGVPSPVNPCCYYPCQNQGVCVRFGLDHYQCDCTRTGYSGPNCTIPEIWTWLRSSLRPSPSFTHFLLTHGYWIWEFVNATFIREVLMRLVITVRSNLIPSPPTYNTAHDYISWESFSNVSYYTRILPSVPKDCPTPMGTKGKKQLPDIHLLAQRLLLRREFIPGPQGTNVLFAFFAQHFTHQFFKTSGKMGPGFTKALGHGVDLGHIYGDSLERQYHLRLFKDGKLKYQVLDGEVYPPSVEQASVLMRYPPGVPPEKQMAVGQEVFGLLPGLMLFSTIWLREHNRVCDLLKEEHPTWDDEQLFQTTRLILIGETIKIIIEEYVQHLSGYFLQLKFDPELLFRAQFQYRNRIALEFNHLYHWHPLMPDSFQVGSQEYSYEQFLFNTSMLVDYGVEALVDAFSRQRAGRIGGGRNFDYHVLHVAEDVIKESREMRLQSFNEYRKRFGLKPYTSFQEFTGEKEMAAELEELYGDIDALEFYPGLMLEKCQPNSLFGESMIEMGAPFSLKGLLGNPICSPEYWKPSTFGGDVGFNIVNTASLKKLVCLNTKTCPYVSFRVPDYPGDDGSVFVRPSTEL

[2] = molecular target: Sodium-dependent dopamine transporter (Homo sapiens, UniProt Q01959)
Sodium-dependent dopamine transporter, sequence (Q01959 whole entry): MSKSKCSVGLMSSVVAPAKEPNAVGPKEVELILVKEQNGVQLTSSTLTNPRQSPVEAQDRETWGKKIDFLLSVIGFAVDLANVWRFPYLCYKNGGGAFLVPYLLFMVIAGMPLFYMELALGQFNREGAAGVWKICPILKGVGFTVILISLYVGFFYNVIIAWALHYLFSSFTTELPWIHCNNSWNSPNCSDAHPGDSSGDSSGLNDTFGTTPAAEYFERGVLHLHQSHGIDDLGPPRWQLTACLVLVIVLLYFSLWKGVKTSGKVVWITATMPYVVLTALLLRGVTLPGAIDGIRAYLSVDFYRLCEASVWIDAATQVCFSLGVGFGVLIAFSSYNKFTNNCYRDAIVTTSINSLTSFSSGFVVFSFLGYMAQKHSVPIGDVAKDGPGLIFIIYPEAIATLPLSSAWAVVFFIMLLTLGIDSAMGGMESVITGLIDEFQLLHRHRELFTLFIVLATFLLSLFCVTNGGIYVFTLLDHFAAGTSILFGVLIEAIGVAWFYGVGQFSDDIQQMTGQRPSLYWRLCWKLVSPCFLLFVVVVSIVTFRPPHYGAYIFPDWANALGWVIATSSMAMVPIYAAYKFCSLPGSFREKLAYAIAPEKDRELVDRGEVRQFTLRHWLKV

[3] = molecular target: Growth hormone secretagogue receptor type 1 (Homo sapiens, UniProt Q92847)
Growth hormone secretagogue receptor type 1, sequence (Q92847 whole entry): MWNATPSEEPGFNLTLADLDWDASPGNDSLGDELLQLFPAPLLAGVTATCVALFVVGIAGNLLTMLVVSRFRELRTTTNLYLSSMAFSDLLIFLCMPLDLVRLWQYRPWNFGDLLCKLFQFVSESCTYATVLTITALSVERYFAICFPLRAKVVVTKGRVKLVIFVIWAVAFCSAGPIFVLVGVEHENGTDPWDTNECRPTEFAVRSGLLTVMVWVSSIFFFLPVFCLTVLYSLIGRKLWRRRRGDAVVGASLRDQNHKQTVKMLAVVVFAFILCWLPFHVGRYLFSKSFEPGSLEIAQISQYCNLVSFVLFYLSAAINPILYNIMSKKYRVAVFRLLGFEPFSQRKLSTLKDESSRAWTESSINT

[4] = molecular target: T2, Adenosine receptor A3 (Homo sapiens, UniProt P0DMS8)
T2 sequence (P0DMS8 whole entry): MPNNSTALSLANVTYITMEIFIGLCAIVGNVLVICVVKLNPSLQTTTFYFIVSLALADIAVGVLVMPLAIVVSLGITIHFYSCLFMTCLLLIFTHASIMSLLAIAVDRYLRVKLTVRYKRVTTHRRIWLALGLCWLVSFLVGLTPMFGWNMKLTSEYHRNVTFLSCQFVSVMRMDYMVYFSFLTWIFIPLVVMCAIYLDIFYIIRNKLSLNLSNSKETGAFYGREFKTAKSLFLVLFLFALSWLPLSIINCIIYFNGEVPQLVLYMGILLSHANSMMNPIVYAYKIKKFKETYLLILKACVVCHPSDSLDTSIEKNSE

[5] = molecular target: T3, Alpha-2A adrenergic receptor (Homo sapiens, UniProt P08913); format: functional, cell-based
T3 sequence (P08913 whole entry): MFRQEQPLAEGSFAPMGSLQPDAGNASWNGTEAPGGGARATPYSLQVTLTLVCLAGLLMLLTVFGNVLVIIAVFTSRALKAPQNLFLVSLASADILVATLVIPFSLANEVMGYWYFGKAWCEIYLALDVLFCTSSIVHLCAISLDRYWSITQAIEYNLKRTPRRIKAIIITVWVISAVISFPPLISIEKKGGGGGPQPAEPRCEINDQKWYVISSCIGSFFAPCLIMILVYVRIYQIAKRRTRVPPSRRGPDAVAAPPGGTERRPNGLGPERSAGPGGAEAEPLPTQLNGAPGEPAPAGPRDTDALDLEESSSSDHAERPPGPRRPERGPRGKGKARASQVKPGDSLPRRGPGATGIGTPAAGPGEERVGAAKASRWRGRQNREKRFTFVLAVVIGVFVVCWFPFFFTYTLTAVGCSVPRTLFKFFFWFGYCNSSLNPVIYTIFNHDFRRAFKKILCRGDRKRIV

[6] = molecular target: T4, 5-hydroxytryptamine receptor 1A (Homo sapiens, UniProt P08908); format: functional, cell-based
T4 sequence (P08908 whole entry): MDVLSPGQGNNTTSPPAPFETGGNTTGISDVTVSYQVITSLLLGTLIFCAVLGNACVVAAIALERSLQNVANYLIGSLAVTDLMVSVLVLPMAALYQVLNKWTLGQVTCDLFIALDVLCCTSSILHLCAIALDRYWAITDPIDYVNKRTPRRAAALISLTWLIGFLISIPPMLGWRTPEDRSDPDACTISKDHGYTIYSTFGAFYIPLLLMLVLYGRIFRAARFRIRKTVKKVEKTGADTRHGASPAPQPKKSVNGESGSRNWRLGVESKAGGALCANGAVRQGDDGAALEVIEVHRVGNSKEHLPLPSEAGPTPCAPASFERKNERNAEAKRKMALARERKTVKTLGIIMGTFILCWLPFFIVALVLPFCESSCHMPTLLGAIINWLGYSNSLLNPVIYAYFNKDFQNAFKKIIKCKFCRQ

[7] = molecular target: Bile salt export pump (Homo sapiens, UniProt O95342); format: functional
Bile salt export pump, sequence (O95342 whole entry): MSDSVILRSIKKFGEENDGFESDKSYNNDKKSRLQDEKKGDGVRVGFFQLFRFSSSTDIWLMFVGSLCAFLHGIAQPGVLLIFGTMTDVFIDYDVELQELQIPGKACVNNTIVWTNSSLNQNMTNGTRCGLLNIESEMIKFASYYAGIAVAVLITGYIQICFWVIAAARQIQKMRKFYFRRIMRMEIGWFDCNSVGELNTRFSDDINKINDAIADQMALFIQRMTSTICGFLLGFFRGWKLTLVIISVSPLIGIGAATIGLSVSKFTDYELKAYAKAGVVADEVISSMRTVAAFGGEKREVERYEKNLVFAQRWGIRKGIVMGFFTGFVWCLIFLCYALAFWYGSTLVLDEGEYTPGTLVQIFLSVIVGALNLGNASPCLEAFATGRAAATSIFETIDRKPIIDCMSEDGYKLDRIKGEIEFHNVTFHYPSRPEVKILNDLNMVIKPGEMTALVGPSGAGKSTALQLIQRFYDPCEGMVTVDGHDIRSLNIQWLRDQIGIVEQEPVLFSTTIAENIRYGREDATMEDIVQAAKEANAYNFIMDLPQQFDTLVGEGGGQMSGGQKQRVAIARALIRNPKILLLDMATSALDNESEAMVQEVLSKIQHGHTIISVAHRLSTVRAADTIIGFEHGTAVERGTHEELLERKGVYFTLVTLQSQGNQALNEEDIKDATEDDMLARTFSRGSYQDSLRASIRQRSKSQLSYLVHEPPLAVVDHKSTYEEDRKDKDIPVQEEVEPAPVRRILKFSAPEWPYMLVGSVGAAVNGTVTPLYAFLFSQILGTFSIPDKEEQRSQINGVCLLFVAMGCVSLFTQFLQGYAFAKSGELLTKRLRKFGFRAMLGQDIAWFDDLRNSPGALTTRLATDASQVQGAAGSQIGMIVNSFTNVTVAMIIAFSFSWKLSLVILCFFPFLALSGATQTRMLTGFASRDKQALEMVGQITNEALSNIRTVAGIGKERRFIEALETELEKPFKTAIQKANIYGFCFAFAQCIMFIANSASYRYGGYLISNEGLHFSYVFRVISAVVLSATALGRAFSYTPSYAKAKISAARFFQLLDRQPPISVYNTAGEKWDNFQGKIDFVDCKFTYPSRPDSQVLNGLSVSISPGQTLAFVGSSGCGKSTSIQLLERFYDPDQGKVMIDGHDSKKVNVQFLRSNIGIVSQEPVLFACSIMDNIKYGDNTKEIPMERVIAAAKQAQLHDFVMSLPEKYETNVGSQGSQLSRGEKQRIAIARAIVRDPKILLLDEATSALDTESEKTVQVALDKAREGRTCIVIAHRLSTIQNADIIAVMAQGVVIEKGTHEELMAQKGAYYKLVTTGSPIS

[8] = molecular target: T5, Adenosine receptor A1 (Homo sapiens, UniProt P30542)
T5 sequence (P30542 whole entry): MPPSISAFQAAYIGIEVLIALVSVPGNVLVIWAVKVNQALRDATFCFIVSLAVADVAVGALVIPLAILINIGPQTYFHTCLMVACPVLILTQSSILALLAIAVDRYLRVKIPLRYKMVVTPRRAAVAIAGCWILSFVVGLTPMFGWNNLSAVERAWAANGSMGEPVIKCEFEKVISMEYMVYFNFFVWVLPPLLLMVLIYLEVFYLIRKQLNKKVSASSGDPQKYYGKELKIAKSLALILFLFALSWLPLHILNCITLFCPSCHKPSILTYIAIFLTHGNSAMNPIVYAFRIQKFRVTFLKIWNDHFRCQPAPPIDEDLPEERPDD

[9] = molecular target: T6, Cholecystokinin receptor type A (Homo sapiens, UniProt P32238)
T6 sequence (P32238 whole entry): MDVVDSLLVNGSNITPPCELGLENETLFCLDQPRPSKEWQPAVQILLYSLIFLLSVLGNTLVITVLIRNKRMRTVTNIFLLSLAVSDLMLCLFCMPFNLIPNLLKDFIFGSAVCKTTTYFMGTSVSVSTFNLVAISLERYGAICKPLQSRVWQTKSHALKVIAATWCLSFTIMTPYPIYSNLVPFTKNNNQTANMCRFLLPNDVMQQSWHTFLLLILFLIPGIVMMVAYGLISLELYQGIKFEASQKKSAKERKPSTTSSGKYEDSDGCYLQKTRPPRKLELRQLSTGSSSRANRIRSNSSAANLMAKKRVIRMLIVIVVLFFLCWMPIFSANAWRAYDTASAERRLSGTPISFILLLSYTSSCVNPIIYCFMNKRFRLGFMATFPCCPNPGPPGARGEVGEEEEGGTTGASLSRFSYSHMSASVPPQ
Further: assay procedure not described here.

| SMILES | AC50 [1] [µM] | AC50 [2] [µM] | AC50 [3] [µM] | AC50 [4] [µM] | AC50 [5] [µM] | AC50 [6] [µM] | AC50 [7] [µM] | AC50 [8] [µM] | AC50 [9] [µM] |
| --- | --- | --- | --- | --- | --- | --- | --- | --- | --- |
| COC(=O)N[C@H](C(=O)N1CCC[C@H]1c1nc(-c2ccc(-c3ccc(-c4c[nH]c([C@@H]5CCCN5C(=O)[C@@H](NC(=O)OC)C(C)C)n4)cc3)cc2)c[nH]1)C(C)C | > 30 | > 30 | > 30 | > 30 | > 30 | > 30 | 5.9 | > 30 | > 30 |
| Nc1nc(N)c2nc(-c3ccccc3)c(N)nc2n1 | > 30 | > 30 | > 30 | > 30 | > 30 | > 30 | > 300 | > 30 | > 30 |
| CC(N)Cc1ccccc1 (stereo unspecified) [AMPHETAMINE] | > 30 |  | > 30 | > 30 | > 30 | > 30 | > 300 | 18 | > 30 |
| O=C1c2c(O)c(=O)ccn2N([C@@H]2c3ccccc3SCc3c2ccc(F)c3F)[C@@H]2COCCN12 [BALOXAVIR] |  |  |  |  |  |  | 24 |  |  |
| COc1cc(Nc2c(C#N)cnc3cc(OCCCN4CCN(C)CC4)c(OC)cc23)c(Cl)cc1Cl [BOSUTINIB] | > 30 | 8.75 | 4.3 | 10.3 |  |  |  | > 30 | > 30 |
| Cc1cc(O)cc(C)c1Cl [CHLOROXYLENOL] |  |  |  |  |  |  | > 300 |  |  |
| CN(C)CCCN1c2ccccc2CCc2ccc(Cl)cc21 [CLOMIPRAMINE] |  | 14.6 |  |  | > 10 | > 30 |  |  |  |
| CC(=O)OCC(=O)[C@@]1(O)CC[C@H]2[C@@H]3CCC4=CC(=O)CC[C@]4(C)[C@H]3C(=O)C[C@@]21C [CORTISONE ACETATE] |  |  |  |  |  | > 30 | > 300 |  |  |
| COc1cc2c(cc1OC)C(=O)C(CC1CCN(Cc3ccccc3)CC1)C2 (stereo unspecified) [DONEPEZIL] | > 30 | > 30 | > 30 | > 30 | > 10 |  | > 300 | > 30 | > 30 |
| CCC(=O)O[C@H]1[C@H](O[C@@H]2[C@@H](C)[C@H](O[C@H]3C[C@@](C)(OC)[C@@H](O)[C@H](C)O3)[C@@H](C)C(=O)O[C@H](CC)[C@@](C)(O)[C@H](O)[C@@H](C)C(=O)[C@H](C)C[C@@]2(C)O)O[C@H](C)C[C@@H]1N(C)C [ERYTHROMYCIN PROPIONATE] |  |  |  |  |  |  | > 300 |  |  |
| CCOC(=O)c1ccc(O)cc1 [ETHYLPARABEN] |  |  |  |  |  |  | > 300 |  |  |
| O=C(COc1ccc(Cl)cc1)N1CCN(Cc2ccc3c(c2)OCO3)CC1 [FIPEXIDE] |  |  |  |  |  |  | 48 |  |  |
| Cc1c(-c2ccccc2)oc2c(C(=O)OCCN3CCCCC3)cccc2c1=O [FLAVOXATE] |  |  |  |  |  |  | 220 |  |  |
| CC(C)C(=O)Nc1ccc([N+](=O)[O-])c(C(F)(F)F)c1 [FLUTAMIDE] | > 10 | > 10 | > 30 | > 30 | > 10 | > 10 |  | > 30 | > 30 |
| C#C[C@]1(O)CC[C@H]2[C@@H]3CCC4=CC(=O)CC[C@@H]4[C@H]3CC[C@@]21CC [LEVONORGESTREL] |  |  |  |  |  |  | 94 |  |  |
| OC[C@@H](O)[C@@H](O)[C@H](O)[C@H](O)CO [MANNITOL] |  |  |  |  |  |  | > 300 |  |  |

| SMILES | AC50 [1] [µM] | AC50 [2] [µM] | AC50 [3] [µM] | AC50 [4] [µM] | AC50 [5] [µM] | AC50 [6] [µM] | AC50 [7] [µM] | AC50 [8] [µM] | AC50 [9] [µM] |
| --- | --- | --- | --- | --- | --- | --- | --- | --- | --- |
| CN1CCCC(CN2c3ccccc3Sc3ccccc32)C1 (stereo unspecified) [MEPAZINE] |  |  |  |  |  |  | 100 |  |  |
| Sc1ncnc2nc[nH]c12 [MERCAPTOPURINE ANHYDROUS] |  |  |  |  |  |  | > 300 |  |  |
| C[N+]1(C)[C@@H]2C[C@@H](OC(=O)[C@H](CO)c3ccccc3)C[C@H]1[C@@H]1O[C@@H]12 [METHSCOPOLAMINE] |  |  |  |  |  |  | > 300 |  |  |
| O=C1CC[C@@]2(O)[C@H]3Cc4ccc(O)c5c4[C@@]2(CCN3CC2CC2)[C@H]1O5 [NALTREXONE] |  |  |  |  |  |  | > 300 |  |  |
| CCc1nn(CCCN2CCN(c3cccc(Cl)c3)CC2)c(=O)n1CCOc1ccccc1 [NEFAZODONE] | > 30 |  | > 30 | 11.9 |  | 2 | 6 | > 30 | 13.3 |
| OCCN1CCN(CCCN2c3ccccc3C=Cc3ccccc32)CC1 [OPIPRAMOL] | > 30 | > 30 | > 30 | > 30 | > 30 | > 30 |  | > 30 | > 30 |
| CC(N/C(=N\C#N)Nc1ccncc1)C(C)(C)C (stereo unspecified) [PINACIDIL ANHYDROUS] |  |  |  |  |  |  | 290 |  |  |
| CC(O)CO (stereo unspecified) [PROPYLENE GLYCOL] |  |  |  |  |  |  | > 300 |  |  |
| CN(C)C(=O)Oc1ccc[n+](C)c1 [PYRIDOSTIGMINE] |  |  |  |  |  |  | > 300 |  |  |
| O=C(NC[C@H]1CN(c2ccc(N3CCOCC3=O)cc2)C(=O)O1)c1ccc(Cl)s1 [RIVAROXABAN] | > 30 | > 30 |  | > 30 | > 30 | > 30 | 100 |  |  |
| Cc1cc2c(cc1CC(=O)c1sccc1S(=O)(=O)Nc1onc(C)c1Cl)OCO2 [SITAXENTAN] |  |  |  |  |  |  | 9.7 |  |  |
| CC(C)OC(=O)[C@H](C)N[P@](=O)(OC[C@H]1O[C@@H](n2ccc(=O)[nH]c2=O)[C@](C)(F)[C@@H]1O)Oc1ccccc1 [SOFOSBUVIR] |  |  |  |  |  |  | 270 |  |  |
| CNC(=O)c1cc(Oc2ccc(NC(=O)Nc3ccc(Cl)c(C(F)(F)F)c3)cc2)ccn1 [SORAFENIB] | > 30 | 6.85 | > 30 | 1.88 | > 30 |  | 2 | > 30 | > 30 |
| CC(=O)OC[C@H]1O[C@@H](n2ccc(=O)[nH]c2=O)[C@H](OC(C)=O)[C@@H]1OC(C)=O [URIDINE TRIACETATE] |  |  |  |  |  |  | > 300 |  |  |
| CCOC(=O)N[C@@H]1CC[C@@H]2[C@@H](C1)C[C@H]1C(=O)O[C@H](C)[C@H]1[C@H]2/C=C/c1ccc(-c2cccc(F)c2)cn1 [VORAPAXAR] |  |  |  |  |  |  | 2.2 |  |  |

Source: ChEMBL document CHEMBL5291721, “A preclinical secondary pharmacology resource illuminates target-adverse drug reaction associations of marketed drugs” (Nat Commun, 2023)
